Results taken from patent US11518758B2, “Heteroarylaminopyrimidine amide autophagy inhibitors and methods of use thereof” (Deciphera Pharmaceuticals, LLC, priority 2019, dated 2022).

Molecular target: T1, ULK2 kinase (Homo sapiens, UniProt Q8IYT8)
T1 construct: purchased Eurofins 14-772
Test: Biochemical assay for ULK2 (coupled pyruvate kinase/lactate dehydrogenase assay)
Settings: 9.7 nM ULK2 (Eurofins), myelin basic protein, 1 mM ATP; read-out: ULK2.2
Procedure: Example 176. Biochemical Assay for ULK2
Activity of ULK2 kinase was determined spectroscopically using a coupled pyruvate kinase/lactate dehydrogenase assay that continuously monitors the ATP hydrolysis-dependent oxidation of NADH (e.g., Schindler et al. Science (2000) 289: 1938-1942). Assays were conducted in 384-well plates (100 uL final volume) using 9.7 nM ULK2 (Eurofins CAT #14-772), 0.25 mg/mL myelin basic protein, 1.5 units pyruvate kinase, 2.1 units lactate dehydrogenase, 1 mM phosphoenol pyruvate, 0.28 mM NADH and 1 mM ATP in assay buffer (100 mM Tris, pH 7.5, 15 mM MgCl2, 0.5 mM DTT, 0.1% octyl-glucoside, 0.002% (w/v) BSA, and 0.002% Triton X-100). Inhibition of ULK2 was measured by adding serial diluted test compound (final assay concentration of 1% DMSO). A decrease in absorption at 340 nm was monitored continuously for 6 hours at 30° C. on a multi-mode microplate reader (BioTek). The reaction rate was calculated using the 2-3 h time frame. The reaction rate at each concentration of compound was converted to percent inhibition using controls (i.e. reaction with no test compound and reaction with a known inhibitor) and IC50 values were calculated by fitting a four-parameter sigmoidal curve to the data using Prism (GraphPad software).

T1 sequence (Q8IYT8 with tags, fused parts or gaps): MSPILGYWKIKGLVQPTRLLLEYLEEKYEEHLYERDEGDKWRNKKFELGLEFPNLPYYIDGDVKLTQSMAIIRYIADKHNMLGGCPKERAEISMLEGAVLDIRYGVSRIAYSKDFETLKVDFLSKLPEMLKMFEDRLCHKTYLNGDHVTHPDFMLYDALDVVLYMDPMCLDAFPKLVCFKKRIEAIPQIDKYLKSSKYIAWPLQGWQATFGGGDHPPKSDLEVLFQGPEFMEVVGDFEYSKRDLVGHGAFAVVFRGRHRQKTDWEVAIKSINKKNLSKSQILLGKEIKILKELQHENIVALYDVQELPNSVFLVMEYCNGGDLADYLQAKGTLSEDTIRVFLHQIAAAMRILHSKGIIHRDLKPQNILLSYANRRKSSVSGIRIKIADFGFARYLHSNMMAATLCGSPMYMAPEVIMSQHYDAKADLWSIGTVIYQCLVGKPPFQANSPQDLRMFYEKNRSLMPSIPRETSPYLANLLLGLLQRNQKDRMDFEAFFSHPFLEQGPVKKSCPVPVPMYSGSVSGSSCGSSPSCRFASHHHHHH

Row | IC50 | SMILES
1 | > 0.5 µM | Cc1nn(C2CCN(C)CC2)cc1Nc1ncc(Cl)c(NCCCN2CCCOCC2=O)n1 [Example 105]
2 | 0.025 to 0.1 µM | Cc1nn(C2CCN(C)CC2)cc1Nc1ncc(C(F)(F)F)c(NCCCN2CCCCC2=O)n1 [Example 8]
3 | 0.025 to 0.1 µM | CC(C)N1CCC(n2cc(Nc3ncc(C(F)(F)F)c(NCCCN4CCCCC4=O)n3)cn2)CC1 [Example 6]
4 | 0.025 to 0.1 µM | Cc1nn([C@@H]2CCN(C)C2)cc1Nc1ncc(C(F)(F)F)c(NCCCN2CCCCC2=O)n1 [Example 18]
5 | 0.001 to 0.025 µM | Cc1nn(C2CCN(C)CC2)cc1Nc1ncc(C(F)(F)F)c(NCCCN2CCCCCC2=O)n1 [Example 79]

Further lines, the molecule ahead of its results:

Row | SMILES | IC50
6 | CN(C)CCn1cc(Nc2ncc(C(F)(F)F)c(NCCCN3CCCCC3=O)n2)cn1 [Example 32] | 0.1 to 0.5 µM
7 | Cc1nn([C@@H]2CCN(C)C2)cc1Nc1ncc(C(F)(F)F)c(NCCCN2CCCOCC2=O)n1 [Example 106] | 0.1 to 0.5 µM
8 | Cc1nn(C2CCN(C(C)C)CC2)cc1Nc1ncc(C(F)(F)F)c(NCCCN2CCOCCC2=O)n1 [Example 131] | > 0.5 µM
9 | CCc1nn(C2CCN(C)CC2)cc1Nc1ncc(Br)c(NCCCN2CCCCC2=O)n1 [Example 53] | 0.1 to 0.5 µM
10 | CCN1CCC(n2cc(Nc3ncc(C(F)(F)F)c(NCCCN4CCCOCC4=O)n3)c(C)n2)CC1 [Example 107] | 0.1 to 0.5 µM

Tested on: phospho-Serine 318 ATG13 (pATG13) in HCT-116 cells
Test: pATG13 levels of mutant KRas HCT-116 cells after treatment with ULK inhibitors in combination with trametinib (ELISA)
Assay type: cell-based, human
Settings: not given
Procedure: Example 179. pATG13 Levels of Mutant KRas HCT-116 Cells after Treatment with ULK Inhibitors in Combination with Trametinib
HCT-116 human colon cancer cells (10000 cells/well) were added to a 384-well tissue-culture treated plate in 50 μL of pre-warmed DMEM medium supplemented with 10% characterized fetal bovine serum (Invitrogen, Carlsbad, Calif.), 100 units/mL penicillin G, and 100 μg/mL streptomycin and allowed to grow overnight at 37° C., 5% CO2, and 95% humidity. The following day, 10 μL of media containing trametinib or DMSO as a control was added to wells. The final concentration of trametinib in wells was 250 nM. A dose response of a test compound (0.6 μL per well) was added. DMSO (0.6 μL) was added to control wells. The plate was briefly shaken to mix wells and then incubated at 37° C. overnight. The next day, the media was aspirated and cells were washed with Dulbecco's Phosphate Buffered Saline (Gibco). Cells were lysed using MPER lysis buffer (Pierce, Rockford, Ill.) containing Halt Phosphatase and Protease Inhibitors (Pierce, Rockford, Ill.) and Phosphatase inhibitor cocktail 2 (Sigma, St. Louis, Mo.) at 4° C. for 10 minutes with shaking.
Cellular levels of phospho-Serine 318 ATG13 (pATG13) were measured via an ELISA method. Total ATG13 Antibody (Cell Signaling Cat #13273) was used to coat the wells. The plate was incubated at 4° C. overnight and washed with ELISA wash buffer (Biolegend Cat #421601). The wells were then blocked with assay diluent (Biolegend Cat #421203) for 1 hour at room temperature. Plate wells were washed with ELISA wash buffer. Cell lysate was added to wells and incubated at room temperature for 2 hours. Plate wells were washed with ELISA wash buffer. Biotinylated pS318-ATG13 antibody (Rockland Immunochemicals Cat #600-401-C49) was diluted in assay diluent and added to each well and incubated at room temperature for 1 hour. Plate wells were washed with ELISA wash buffer. Streptavidin linked to horseradish peroxidase (Thermo Fisher Cat #21140) was diluted in assay diluent and added to each well and incubated at room temperature for 1 hour. Plate wells were washed with ELISA wash buffer. High sensitivity TMB substrate (Biolegend Cat #421101) was added to each well and incubated at room temperature for 20 minutes. The reaction was stopped with 2N Sulfuric Acid. The plate was analyzed at on a plate reader measuring absorbance at 450 nm and 540 nm (background). Signal was calculated by first subtracting the background absorbance at 540 nm from the absorbance at 450 nm for each well. Next, the background corrected absorbance at 450 nm from blank wells was subtracted from test wells. Data was compared to control wells to determine % ATG13 phosphorylation. GraphPad Prism was used to calculate IC50 values.

Row | IC50 | SMILES
11 | 0.1 to 0.3 µM | Cc1nn(C2CCN(C)CC2)cc1Nc1ncc(Cl)c(NCCCN2CCCOCC2=O)n1 [Example 105]
12 | 0.1 to 0.3 µM | CC(C)N1CCC(n2cc(Nc3ncc(C(F)(F)F)c(NCCCN4CCCCC4=O)n3)cn2)CC1 [Example 6]
13 | 0.01 to 0.1 µM | Cc1nn(C2CCN(C)CC2)cc1Nc1ncc(C(F)(F)F)c(NCCCN2CCCCCC2=O)n1 [Example 79]

Continued, molecule first:

Row | SMILES | IC50
14 | CN(C)CCn1cc(Nc2ncc(C(F)(F)F)c(NCCCN3CCCCC3=O)n2)cn1 [Example 32] | 0.01 to 0.1 µM
15 | Cc1nn([C@@H]2CCN(C)C2)cc1Nc1ncc(C(F)(F)F)c(NCCCN2CCCOCC2=O)n1 [Example 106] | 0.01 to 0.1 µM
16 | Cc1nn(C2CCN(C(C)C)CC2)cc1Nc1ncc(C(F)(F)F)c(NCCCN2CCOCCC2=O)n1 [Example 131] | 0.1 to 0.3 µM
17 | CCc1nn(C2CCN(C)CC2)cc1Nc1ncc(Br)c(NCCCN2CCCCC2=O)n1 [Example 53] | 0.01 to 0.1 µM
18 | CCN1CCC(n2cc(Nc3ncc(C(F)(F)F)c(NCCCN4CCCOCC4=O)n3)c(C)n2)CC1 [Example 107] | 0.01 to 0.1 µM

Molecular target: T2, ULK1 kinase (Homo sapiens, UniProt O75385)
T2 construct: purchased Eurofins 14-959
T2 sequence (O75385 with tags, fused parts or gaps): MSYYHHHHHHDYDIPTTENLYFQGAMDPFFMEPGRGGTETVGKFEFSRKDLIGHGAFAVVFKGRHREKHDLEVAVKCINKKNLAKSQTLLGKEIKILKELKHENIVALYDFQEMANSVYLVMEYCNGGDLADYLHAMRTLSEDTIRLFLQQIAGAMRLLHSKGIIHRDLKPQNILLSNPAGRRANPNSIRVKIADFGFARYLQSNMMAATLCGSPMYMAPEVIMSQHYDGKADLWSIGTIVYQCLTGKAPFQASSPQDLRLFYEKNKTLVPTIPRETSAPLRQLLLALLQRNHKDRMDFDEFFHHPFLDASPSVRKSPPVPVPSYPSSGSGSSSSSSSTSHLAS
Test: Biochemical assay for ULK1.2 (coupled pyruvate kinase/lactate dehydrogenase assay)
Settings: 19 nM ULK1 (Eurofins), myelin basic protein, 1 mM ATP
Method in brief: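 NADH-coupled PK/LDH read-out at 340 nm, run with 19 nM ULK1, 0.25 mg/mL myelin basic protein and 1 mM ATP. Buffer was 100 mM Tris pH 7.5 with 15 mM MgCl2 and 1% DMSO final. Monitoring was continuous for 6 hours at 30° C; rates from the 2-3 h window were converted to percent inhibition and fitted to a four-parameter curve for IC50.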

Row | IC50 | SMILES
19 | 0.025 to 0.1 µM | Cc1nn(C2CCN(C)CC2)cc1Nc1ncc(Cl)c(NCCCN2CCCOCC2=O)n1 [Example 105]
20 | 0.001 to 0.025 µM | Cc1nn(C2CCN(C)CC2)cc1Nc1ncc(C(F)(F)F)c(NCCCN2CCCCC2=O)n1 [Example 8]
21 | 0.001 to 0.025 µM | CC(C)N1CCC(n2cc(Nc3ncc(C(F)(F)F)c(NCCCN4CCCCC4=O)n3)cn2)CC1 [Example 6]
22 | 0.001 to 0.025 µM | Cc1nn([C@@H]2CCN(C)C2)cc1Nc1ncc(C(F)(F)F)c(NCCCN2CCCCC2=O)n1 [Example 18]
23 | 0.001 to 0.025 µM | Cc1nn(C2CCN(C)CC2)cc1Nc1ncc(C(F)(F)F)c(NCCCN2CCCCCC2=O)n1 [Example 79]

Continued, molecule first:

Row | SMILES | IC50
24 | CN(C)CCn1cc(Nc2ncc(C(F)(F)F)c(NCCCN3CCCCC3=O)n2)cn1 [Example 32] | 0.025 to 0.1 µM
25 | Cc1nn([C@@H]2CCN(C)C2)cc1Nc1ncc(C(F)(F)F)c(NCCCN2CCCOCC2=O)n1 [Example 106] | 0.025 to 0.1 µM
26 | Cc1nn(C2CCN(C(C)C)CC2)cc1Nc1ncc(C(F)(F)F)c(NCCCN2CCOCCC2=O)n1 [Example 131] | 0.025 to 0.1 µM
27 | CCc1nn(C2CCN(C)CC2)cc1Nc1ncc(Br)c(NCCCN2CCCCC2=O)n1 [Example 53] | 0.025 to 0.1 µM
28 | CCN1CCC(n2cc(Nc3ncc(C(F)(F)F)c(NCCCN4CCCOCC4=O)n3)c(C)n2)CC1 [Example 107] | 0.025 to 0.1 µM
